This experiment addresses T1, 20S proteasome, β5 subunit (chymotrypsin-like activity) (Homo sapiens, UniProt P28074).
T1 sequence (P28074 60-263): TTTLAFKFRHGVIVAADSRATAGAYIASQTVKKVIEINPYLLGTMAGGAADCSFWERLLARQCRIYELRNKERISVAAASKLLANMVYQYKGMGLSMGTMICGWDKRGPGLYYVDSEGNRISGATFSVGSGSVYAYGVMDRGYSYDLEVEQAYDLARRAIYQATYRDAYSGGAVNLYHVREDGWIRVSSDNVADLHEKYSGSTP
It counts as biochemical.

A word on the IC50: it is the point on the concentration scale where inhibition reaches its midpoint. Higher therefore signals a need for much substance. For the substance [Cd2(C11H10O2N)4(H2O)2]·2H2O, the 50% inhibitory concentration (IC50) amounted to 3 µM.

Take [Cd2(C12H12O2N)4(H2O)2]·2H2O [Cd1]: half-maximal inhibition (IC50) was put at 2.6 µM.

[Cd(C7H4N2O2)(C8H6O2)2]·2H2O [Cd3] had an IC50 of 3.3 µM.

Values taken from article PMC3648619 (Journal of inorganic biochemistry, 2013).
